Source: the Deep4Chem optical property database
Values joined by “and” are separate entries in the source; they are usually repeats but may differ in a detail not shown here. Identical values can stand only once. Each block holds one compound with its values, some of them ahead of it.

Test: photoluminescence quantum yield (fraction); solvent given as SMILES

photoluminescence quantum yield (in ClC(Cl)Cl): 0.23
Structure (SMILES): CCn1c2ccccc2sc2c(C#N)c3oc4ccccc4oc3c(C#N)c21

Structure (SMILES): CN(C)c1ccc(C2=Nc3scc(-c4ccc([N+](=O)[O-])cc4)[n+]3[B-](F)(F)O2)cc1
photoluminescence quantum yield (in C1CCOC1): 0.001 | photoluminescence quantum yield (in CC#N): 0.001 | photoluminescence quantum yield (in Cc1ccccc1): 0.001 | photoluminescence quantum yield (in ClCCl): 0.001

photoluminescence quantum yield (in ClCCl): 0.01
Structure (SMILES): CN(c1ccccc1)c1ccc(N(c2ccccc2)c2ccc3ccc4c(N(c5ccccc5)c5ccc(N(C)c6ccccc6)cc5)ccc5ccc2c3c54)cc1

photoluminescence quantum yield (in c1cc(-c2cccc(-n3c4ccccc4c4ccccc43)c2)cc(-n2c3ccccc3c3ccccc32)c1): 0.15
Structure (SMILES): N#Cc1nc(-c2ccc(N3c4ccccc4Oc4ccccc43)cc2)c(-c2ccc(N3c4ccccc4Oc4ccccc43)cc2)nc1C#N

photoluminescence quantum yield (in CC#N): 0.33 | photoluminescence quantum yield (in CO): 0.04 | photoluminescence quantum yield (in ClCCl): 0.93
Structure (SMILES): COc1cc(C=O)cc(-c2[nH]c(=O)n3c2-c2ccccc2C3=O)c1O

Structure (SMILES): CCC1=C(C)C2=Cc3c4ccccc4c4n3[B-](c3ccncc3)(Oc3ccccc3-4)[N+]2=C1C=Cc1ccc(OC)cc1 (centres undefined)
photoluminescence quantum yield (in CC#N): 0.37 | photoluminescence quantum yield (in CCCCCC): 0.36 | photoluminescence quantum yield (in Cc1ccccc1): 0.35 | photoluminescence quantum yield (in ClCCl): 0.35

photoluminescence quantum yield (in C1CCCCC1): 0.04
Structure (SMILES): CB1C=Cc2ccc3ccccc3c2N1c1ccccc1

photoluminescence quantum yield (in ClC(Cl)Cl): 0
Structure (SMILES): O=CC1=Cc2cocc2C=C(C=O)C1

Structure (SMILES): Cc1cc(C)c(C2=C3C=c4c(c5ccccc5c5ccccc45)=[N+]3[B-](F)(F)n3c2cc2c4ccccc4c4ccccc4c23)c(C)c1
photoluminescence quantum yield (in C1CCCCC1): 0.64 | photoluminescence quantum yield (in C1CCOC1): 0.55 | photoluminescence quantum yield (in CC#N): 0.55 | photoluminescence quantum yield (in Cc1ccccc1): 0.51 | photoluminescence quantum yield (in ClCCl): 0.51 and 0.55

photoluminescence quantum yield (in CC#N): 0.00066
Structure (SMILES): COc1cccc(-[c+]2c3ccccc3oc3ccccc32)c1

photoluminescence quantum yield (in ClCCl): 0.83
Structure (SMILES): CN(C)c1cc(-c2ccc(C#Cc3ccncc3)cc2)cc2ccccc12

photoluminescence quantum yield (in ClCCl): 0.55
Structure (SMILES): COCCOCCOCCOCC(COCCOCCOCCOC)Oc1cc(/C=C/c2ccc(/C=C(\C#N)c3ccc(C(F)(F)F)cc3)cc2)c(OC(COCCOCCOCCOC)COCCOCCOCCOC)cc1/C=C/c1ccc(/C=C(\C#N)c2ccc(C(F)(F)F)cc2)cc1

photoluminescence quantum yield (in C1COCCO1): 0.57
Structure (SMILES): COc1ccc(-c2ccc(-c3ccc(F)cc3)cc2)cc1

photoluminescence quantum yield (in ClCCl): 0.44
Structure (SMILES): CC(C)(C)NC(=O)c1ccc(-c2cc3ccccc3o2)c2ccc3c4ccccc4c4ccccc4c3c12

Structure (SMILES): CN(C)/C=N\c1ccc2c3c(cccc13)C(=O)c1ccccc1-2
photoluminescence quantum yield (in C1CCOC1): 0.23 | photoluminescence quantum yield (in CCCCCC): 0.31 | photoluminescence quantum yield (in CCO): 0.26 | photoluminescence quantum yield (in CCOC(C)=O): 0.28 | photoluminescence quantum yield (in CN(C)C=O): 0.2 | photoluminescence quantum yield (in CO): 0.27 | photoluminescence quantum yield (in Cc1ccccc1): 0.66 | photoluminescence quantum yield (in ClC(Cl)(Cl)Cl): 0.24 | photoluminescence quantum yield (in ClC(Cl)Cl): 0.55 | photoluminescence quantum yield (in ClCCl): 0.55 | photoluminescence quantum yield (in c1ccccc1): 0.67

photoluminescence quantum yield (in CS(C)=O): 0.88
Structure (SMILES): Brc1ccc(-c2nc3sc4ccccc4c3s2)cc1

Structure (SMILES): CCC1=C(C)C2=C(C)c3c(I)c(I)c(I)n3[B-](F)(F)[N+]2=C1C
photoluminescence quantum yield (in C1CCCCC1): 0.1 | photoluminescence quantum yield (in CC(C)=O): 0.046 | photoluminescence quantum yield (in CCO): 0.061 | photoluminescence quantum yield (in CCOC(C)=O): 0.072 | photoluminescence quantum yield (in CO): 0.051 | photoluminescence quantum yield (in OCC(F)(F)F): 0.04

photoluminescence quantum yield (in CC#N): 0.76 | photoluminescence quantum yield (in CCCCCC): 0.82 | photoluminescence quantum yield (in CCOC(C)=O): 0.67 | photoluminescence quantum yield (in CO): 0.72 | photoluminescence quantum yield (in ClCCl): 0.8
Structure (SMILES): F[B-]1(F)n2c(Cl)ccc2C(c2c(Cl)cccc2Cl)=C2C=CC(NCc3ccccc3)=[N+]21

photoluminescence quantum yield (in C1CCCCC1): 0.338 | photoluminescence quantum yield (in CCOC(C)=O): 0.202 | photoluminescence quantum yield (in CN(C)C=O): 0.015 | photoluminescence quantum yield (in CO): 0.002 | photoluminescence quantum yield (in ClCCl): 0.292
Structure (SMILES): CCN(CC)c1ccc2c(c1)oc(=O)c1cc3c(-c4ccccc4)nn(C)c3nc12

photoluminescence quantum yield (in C1CCOC1): 0.62
Structure (SMILES): FC(F)(F)C(F)(F)C(F)(F)c1nc2c(-c3ccsc3)cc3c4cc(-c5ccsc5)c5nc(C(F)(F)C(F)(F)C(F)(F)F)nc6c(-c7ccsc7)cc(c7cc(-c8ccsc8)c(n1)c2c37)c4c56

photoluminescence quantum yield (in ClC(Cl)Cl): 0.01
Structure (SMILES): CCCCCCCCCCCCOc1cc2c3c(ccc4c5c(NC6CCCCC6)cc6c7c(ccc(c1c34)c75)C(=O)N(C1CCCCC1)C6=O)C(=O)N(C1CCCCC1)C2=O

photoluminescence quantum yield (in ClCCl): 0.8
Structure (SMILES): C(=C\c1cc(-c2ccccc2)c(/C=C/c2ccc(N(c3ccccc3)c3ccccc3)cc2)cc1-c1ccccc1)/c1ccc(N(c2ccccc2)c2ccccc2)cc1

photoluminescence quantum yield (in ClC(Cl)Cl): 0.1
Structure (SMILES): COc1ccc(-c2oc3cccc4c5c(-c6ccc(OC)c(OC)c6)/c(=N/S(=O)(=O)C(F)(F)F)oc6cccc(c2c34)c65)cc1OC

Structure (SMILES): CC(C)(C)c1ccc2c(c1)c1cc(C(C)(C)C)ccc1n2-c1cc(-n2c3ccc(C(C)(C)C)cc3c3cc(C(C)(C)C)ccc32)c(-n2c3ccc(C(C)(C)C)cc3c3cc(C(C)(C)C)ccc32)c(C#N)c1-n1c2ccc(C(C)(C)C)cc2c2cc(C(C)(C)C)ccc21
photoluminescence quantum yield (in Cc1ccccc1): 0.68

photoluminescence quantum yield (in ClCCl): 0.1
Structure (SMILES): COc1ccc(C(=O)NC(C)(C)C)c2c1ccc1c3ccccc3c3ccccc3c12

photoluminescence quantum yield (in ClCCl): 0.97
Structure (SMILES): O=P1(c2ccccc2)c2cccc3c4c5ccccc5c5ccccc5c4c4ccc1n4c23 (centres undefined)

photoluminescence quantum yield (in ClC(Cl)Cl): 0.005 | photoluminescence quantum yield (in ClCCl): 0.006
Structure (SMILES): O=[N+]([O-])c1ccc(C#Cc2ccc3ccccc3c2)cc1

photoluminescence quantum yield (in ClCCl): 0
Structure (SMILES): COc1ccc(/C=C/c2nc(-c3ccc([N+](=O)[O-])cc3)[nH]c2/C=C/c2ccc(OC)cc2)cc1

photoluminescence quantum yield (in CC#N): 1 | photoluminescence quantum yield (in CCO): 0.98 | photoluminescence quantum yield (in CN(C)C=O): 1 | photoluminescence quantum yield (in CO): 1 | photoluminescence quantum yield (in O): 0.99
Structure (SMILES): O=C([O-])c1ccccc1C1=c2cc3c4c(c2Oc2c1cc1c5c2CCCN5CCC1)CCC[N+]=4CCC3

photoluminescence quantum yield (in C1CCCCC1): 0.23 and 0.42
Structure (SMILES): c1ccc2ccccc2c1

photoluminescence quantum yield (in CC#N): 0.025 | photoluminescence quantum yield (in ClCCCl): 0.034
Structure (SMILES): Cc1ccc2nc3[nH]c(=O)[nH]c(=O)c3nc2c1

Structure (SMILES): Cn1nc(-c2ccccc2)c2n[nH]nc2c1=O
photoluminescence quantum yield (in CC#N): 0.34 | photoluminescence quantum yield (in CCO): 0.21 | photoluminescence quantum yield (in Cc1ccccc1): 0.23

photoluminescence quantum yield (in ClCCl): 0.49
Structure (SMILES): F[B-]1(F)N2C=CN=CC2=[N+]2[N+]1=Cc1c(-c3ccccc3)cc(-c3ccccc3)n1[B-]2(F)F

photoluminescence quantum yield (in ClC(Cl)Cl): 0.78
Structure (SMILES): N#Cc1nc(N(Cc2ccccc2Cl)Cc2ccccc2Cl)c(C#N)nc1N(Cc1ccccc1Cl)Cc1ccccc1Cl

photoluminescence quantum yield (in ClC(Cl)Cl): 0.34
Structure (SMILES): CCn1c2ccccc2oc2c(C#N)c3oc4ccccc4oc3c(C#N)c21

Structure (SMILES): N#Cc1cc(C#N)c(-n2c3ccccc3c3cc(-c4cccc5c4c4ccccc4n5-c4cc(-n5c6ccccc6c6ccccc65)c(C#N)cc4C#N)ccc32)cc1-n1c2ccccc2c2ccccc21
photoluminescence quantum yield (in O=P(c1ccccc1)(c1ccccc1)c1ccccc1Oc1ccccc1P(=O)(c1ccccc1)c1ccccc1): 0.66

photoluminescence quantum yield (in C1CCCCC1): 0.54 | photoluminescence quantum yield (in CCOC(C)=O): 0.51 | photoluminescence quantum yield (in CO): 0.36
Structure (SMILES): c1ccc2c(-n3c4ccccc4c4ccccc43)cccc2c1

photoluminescence quantum yield (in CN(C)C=O): 0.42
Structure (SMILES): C[Si](C)(C)O[Si]1(O[Si](C)(C)C)n2c3c4ccccc4c2/N=C2N=C(/N=c4/c5ccccc5/c(n41)=N/C1=NC(=N\3)/c3ccccc31)c1ccccc1\2

photoluminescence quantum yield (in C1CCOC1): 0.0003 | photoluminescence quantum yield (in CCCCCC): 0.335 | photoluminescence quantum yield (in c1ccccc1): 0.0162
Structure (SMILES): O=C1OC(=O)c2ccc(N(c3ccccc3)c3ccc4ccccc4c3)c3cccc1c23

photoluminescence quantum yield (in c1ccccc1): 0.063
Structure (SMILES): CCOC(=O)c1sc2nc3c(c(C#N)c2c1N)CCCCCC3

Structure (SMILES): COc1ccc(C2=CC(c3ccc4cc(N(C)C)ccc4c3)=[O+][B-](F)(F)O2)cc1
photoluminescence quantum yield (in C1CCOC1): 0.52 | photoluminescence quantum yield (in CC#N): 0.01 | photoluminescence quantum yield (in CC(C)=O): 0.12 | photoluminescence quantum yield (in CS(C)=O): 0.007 | photoluminescence quantum yield (in Cc1ccccc1): 0.95 | photoluminescence quantum yield (in ClC(Cl)Cl): 0.99 | photoluminescence quantum yield (in ClCCl): 0.62
